Reference: patent US20230339968A1, “KRAS Gl2C INHIBITORS” (Eli Lilly and Company, priority 2019, published 2023)
Where two headings read alike, the source gives them in different places.

Columns and labels:
active KRas = active KRas (Homo sapiens, UniProt P01116, G12C); test: In vivo target inhibition, active KRas ELISA of tumor lysates, lung cancer H358 xenograft model; set-up: from tissue; host or cells: H358 xenograft tumours grown subcutaneously in nude female mice; details: NCI-H358, mouse; for inhibition at 12.5 mg/kg / inhibition at 25 mg/kg / inhibition at 50 mg/kg / inhibition at 100 mg/kg: po
Protocol: (§1) The purpose of these assays is to evaluate in vivo target inhibition of an orally administered test compound. Human lung cancer H358 cells, or pancreatic cancer MiaPaca-2 cells, are implanted into nude mice xenograft tumor models. H358 or MiaPaca-2 cells (10×106 in a 1:1 Matrigel® mix, 0.2 mL total volume) are implanted by subcutaneous injection in hind leg of nude female mice (Harlan Laboratories). […] Treatment is initiated with oral administration (gavage) of a test compound or vehicle (20% Captisol®, 25 mM phosphate, pH 2.0 in 0.2 mL) when the tumor size reaches approximately 300 mg.
(§2) For in vivo target inhibition and PD analysis, tumors are ground by mortar and pestle on dry ice and tumor fragments are added to 800 μL of lysis buffer containing 1% Triton™ X-100, 25 mM Tris pH7.5, 150 mM sodium chloride, 1 mM EDTA, and 1 mM EGTA with Halt protease and phosphatase inhibitor cocktail (Thermo Scientific, cat. no. 1861281) in lysing matrix D tubes (MP Biomedical®, cat. no. 6913-500) with one additional large bead (MP Biomedical® ¼″ ceramic sphere bead cat. no. 6540-412) per tube. Tumor fragments are homogenized in a Thermo Bio101® fast prep (FP120) at setting 4 for […] while cold for a total of 2 times. Lysates are spun at 14,000 rpm for 10 minutes at 4° C. to clarify. Protein estimation is done on the lysate supernatant using a BioRad Dc® protein assay and lysates are diluted in complete lysis/binding buffer from the Ras GTPase Chemi ELISA Kit® (Active Motif, cat. no. 52097). The active KRas ELISA is performed as follows: glutathione-coated ELISA wells are incubated with diluted RAF1-GST in complete lysis/binding buffer for 1 hour at 4° C. with gentle agitation. Wells are washed 3 times with wash buffer and 100 μg of lysates are added to each well and incubated at ambient temperature for 1 hour with mild agitation. The wells are washed an additional 3 times, then primary antibody, diluted in antibody binding buffer, is added to each well. The plates are incubated for 1 hour. The wells are washed 3 more times before adding HRP-conjugated secondary antibody, diluted in antibody binding buffer, to each well. The plates are incubated at ambient temperature for 1 hour. ELISA wells are washed 4 times, chemiluminescent reagent is added and then luminescence is read. For pERK Meso Scale Discovery ELISA, 25 μg of protein containing 0.1% SDS is used; Meso Scale Discovery Whole Cell Lysate Kit for pERK is provided by Meso Scale Discovery.
(§3) The purpose of this assay is to evaluate the dose dependent in vivo target inhibition and pharmacodynamic effects in a lung cancer model. The test compound is dosed in lung cancer H358 mouse xenograft model at a dose range from 12.5 to 100 mg/kg. The tumor samples are collected 8 hours post a single dose. The tumor lysates are prepared and the inhibition of pERKand active KRas is measured as described above.
(§4) The purpose of this assay is to evaluate the time dependent in vivo target inhibition and pharmacodynamic effects in a lung cancer model. […] After a single dose, the tumor samples are harvested at 2, 4, 8, 12 and 24 hour post doing. The tumor lysates are prepared and the inhibition of pERK and active KRas is measured as described above.

pERK = test: In vivo pharmacodynamic effect, pERK Meso Scale Discovery ELISA of tumor lysates, lung cancer H358 xenograft model; set-up: species or system mouse; details: Mus musculus; for inhibition at 30 mg/kg: read-out: % inhibition of pERK; for inhibition at 12.5 mg/kg / inhibition at 25 mg/kg / inhibition at 50 mg/kg / inhibition at 100 mg/kg: NCI-H358, po, 8 h, read-out: % Inhibition of pERK
Protocol: as §1, §2, §3, §4

SW756 (cervix) = test: CellTiterGlo Cell Proliferation Assay (2D), SW756; format: cell-based; details: Homo sapiens, 96 hours
Protocol: (§5) The purpose of this assay is to evaluate the growth of KRas G12C mutant tumor lines following treatment with a test compound. A panel of tumor cell lines harboring KRas G12C or other KRas mutations are collected (Table 25). All cell lines are from ATCC or other sources indicated.
(§6) Typically cells are cultured in RPMI1640 or Dulbecco's modified Eagle's medium (DMEM, GIBCO) supplemented with 10% FBS (GIBCO, Invitrogen). […] The cells are treated with compound for 96 hours, and then are analyzed for viability using the CellTiterGlo® Luminescent Cell Viability Assay® (Promega #G7572 for 2D) according to manufacturer's instructions and an EnVision™ plate reader. Nonlinear regression and sigmoidal dose-response curves are used to calculate the half maximal inhibitory concentration (IC50) with GraphPad Prism 4® software.

H2030 (lung) = test: CellTiterGlo Cell Proliferation Assay (2D), H2030; format: cell-based; details: Homo sapiens, NCI-H2030, 96 hours
Protocol: as §5, §6

MiaPaca-2 (pancr) = test: CellTiterGlo Cell Proliferation Assay (2D), MiaPaca-2; format: cell-based; details: Homo sapiens, MIA PaCa-2, 96 hours
Protocol: as §5, §6

Calu-1 (lung) = test: CellTiterGlo Cell Proliferation Assay (2D), Calu-1; format: cell-based; details: Homo sapiens, 96 hours
Protocol: as §5, §6

H1373 (lung) = test: CellTiterGlo Cell Proliferation Assay (2D), H1373; format: cell-based; details: Homo sapiens, NCI-H1373, 96 hours
Protocol: as §5, §6

H2122 (lung) = test: CellTiterGlo Cell Proliferation Assay (2D), H2122; format: cell-based; details: Homo sapiens, NCI-H2122, 96 hours
Protocol: as §5, §6

active KRas, sequence (P01116 1-188 isoform P01116-2 G12C): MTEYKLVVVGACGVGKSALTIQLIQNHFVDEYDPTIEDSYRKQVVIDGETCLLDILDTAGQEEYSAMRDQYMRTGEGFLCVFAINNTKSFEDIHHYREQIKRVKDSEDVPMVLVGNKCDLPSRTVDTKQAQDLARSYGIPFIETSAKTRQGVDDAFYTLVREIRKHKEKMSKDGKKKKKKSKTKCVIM

| Compound | IC50 (SW756 (cervix)) | inhibition at 10 µM (SW756 (cervix)) | IC50 (H2030 (lung)) | inhibition at 10 µM (H2030 (lung)) | IC50 (MiaPaca-2 (pancr)) | inhibition at 10 µM (MiaPaca-2 (pancr)) | IC50 (Calu-1 (lung)) | inhibition at 10 µM (Calu-1 (lung)) | IC50 (H1373 (lung)) | inhibition at 10 µM (H1373 (lung)) | IC50 (H2122 (lung)) | inhibition at 10 µM (H2122 (lung)) | also measured |
| --- | --- | --- | --- | --- | --- | --- | --- | --- | --- | --- | --- | --- | --- |
| C=CC(=O)N1CCN2C(=O)c3cc(F)c(-c4ccc(F)c5sc(N)c(C#N)c45)c(Cl)c3OCC[C@H]2C1 [Example 35, 4-[(13aS)-10-Chloro-8-fluoro-6-oxo-2-prop-2-enoyl-1,3,4,12,13,13a-hexahydropyrazino[2,1-d][1,5]benzoxazocin-9-yl]-2-amino-7-fluoro-benzothiophene-3-carbonitrile] | 1550 nM | 56.7% | > 10000 nM | 40.3% | 11 nM | 85.8% | 480 nM | 56% | 3540 nM | 86.3% | 900 nM | 79.7% | inhibition at 12.5 mg/kg (active KRas; read-out: % Inhibition Active RAS, H358 xenograft mice, single oral dose 12.5 mg/kg, 8 hours): 81%; inhibition at 25 mg/kg (active KRas; read-out: % Inhibition Active RAS, H358 xenograft mice, single oral dose 25 mg/kg, 8 hours): 73.4%; inhibition at 50 mg/kg (active KRas; read-out: % Inhibition Active RAS, H358 xenograft mice, single oral dose 50 mg/kg, 8 hours): 94%; inhibition at 100 mg/kg (active KRas; read-out: % Inhibition Active RAS, H358 xenograft mice, single oral dose 100 mg/kg, 8 hours): 91.9%; inhibition at 30 mg/kg (active KRas; read-out: % Inhibition of Active Ras, H358 model, single dose 30 mg/kg, 2 h): 7.6%; inhibition at 30 mg/kg (active KRas; read-out: % Inhibition of Active Ras, H358 model, single dose 30 mg/kg, 4 h): 65.7%; inhibition at 30 mg/kg (active KRas; read-out: % Inhibition of Active Ras, H358 model, single dose 30 mg/kg, 8 h): 80.2%; inhibition at 30 mg/kg (active KRas; read-out: % Inhibition of Active Ras, H358 model, single dose 30 mg/kg, 12 h): 39.3%; inhibition at 30 mg/kg (active KRas; read-out: % Inhibition of Active Ras, H358 model, single dose 30 mg/kg, 24 h): 54.9%; inhibition at 30 mg/kg (pERK; NCI-H358, 2 h): 67.9%; inhibition at 30 mg/kg (pERK; NCI-H358, 4 h): 73.2%; inhibition at 30 mg/kg (pERK; NCI-H358, 8 h): 82.6%; inhibition at 30 mg/kg (pERK; NCI-H358, 12 h): 71.1%; inhibition at 30 mg/kg (pERK; NCI-H358, 24 h): 65.2%; inhibition at 12.5 mg/kg (pERK): 82.2%; inhibition at 25 mg/kg (pERK): 85.3%; inhibition at 50 mg/kg (pERK): 90.6%; inhibition at 100 mg/kg (pERK): 88.9% |
| C=CC(=O)N1CCN2C(=O)c3cc(F)c(-c4cccc5sc(N)c(C#N)c45)c(Cl)c3OCC[C@H]2C1 [Example 34, 4-[(13aS)-10-Chloro-8-fluoro-6-oxo-2-prop-2-enoyl-1,3,4,12,13,13a-hexahydropyrazino[2,1-d][1,5]benzoxazocin-9-yl]-2-amino-benzothiophene-3-carbonitrile] | 1080 nM | 56.9% | > 10000 nM | 41.1% | 10 nM | 82.9% | 1140 nM | 50.6% | 6740 nM | 67.7% | 660 nM | 78.1% | inhibition at 12.5 mg/kg (active KRas; H358 xenograft mice, single oral dose 12.5 mg/kg, 8 hours, read-out: % Inhibition Active RAS): 14.2%; inhibition at 25 mg/kg (active KRas; H358 xenograft mice, single oral dose 25 mg/kg, 8 hours, read-out: % Inhibition Active RAS): 35.1%; inhibition at 50 mg/kg (active KRas; H358 xenograft mice, single oral dose 50 mg/kg, 8 hours, read-out: % Inhibition Active RAS): 31.5%; inhibition at 100 mg/kg (active KRas; H358 xenograft mice, single oral dose 100 mg/kg, 8 hours, read-out: % Inhibition Active RAS): 69.3%; inhibition at 12.5 mg/kg (pERK; H358 xenograft mice, single oral dose 12.5 mg/kg, 8 hours): 26.9%; inhibition at 25 mg/kg (pERK; H358 xenograft mice, single oral dose 25 mg/kg, 8 hours): 53.2%; inhibition at 50 mg/kg (pERK; H358 xenograft mice, single oral dose 50 mg/kg, 8 hours): 54%; inhibition at 100 mg/kg (pERK; H358 xenograft mice, single oral dose 100 mg/kg, 8 hours): 74.8% |
| C=CC(=O)N1CCN2C(=O)c3cc(Cl)c(-c4ccc(F)c5sc(N)nc45)c(Cl)c3OCC[C@H]2C1 (atropisomer, axis not shown) [Example 1, (13aS)-9-(2-Amino-7-fluoro-1,3-benzothiazol-4-yl)-8,10-dichloro-2-prop-2-enoyl-1,3,4,12,13,13a-hexahydropyrazino[2,1-d][1,5]benzoxazocin-6-one] | 1630 nM | 51.9% | > 10000 nM | 32.9% | 18 nM | 77.2% | > 10000 nM | 45.4% | 1810 nM | 68.8% | 1170 nM | 80.4% |  |
